Results as given in patent US20040116299A1, “Phthalamide derivates, insecticides for agricultural and horticultural use and method for application thereof” (priority 2001, published 2004).

Columns and labels:
Type in all cases: in vivo
[1] = system: Diamond Back Moth (Plutella xylostella); test: Test Example 1: insecticidal effect on diamond back moth, immersion of Chinese cabbage seedling bearing eggs; conditions: seedling with eggs immersed about 30 seconds, counted six days after immersion, 25° C.; for mortality at 5 ppm / mortality at 50 ppm: Plutella xylostella, 144 h, read-out: Test Example 1 insecticidal effect (mortality criterion)
Text: Insecticidal Effect on Diamond Back Moth (Plutella xylostella)
Adult diamond back moths were released and allowed to oviposit on a Chinese cabbage seedling. Two days after the release, the seedling having the eggs deposited thereon was immersed for about 30 seconds in a liquid chemical prepared by diluting a preparation containing each compound listed in Table 1 or 2 as an active ingredient to adjust the prescribed concentration. After air-dryness, it was allowed to stand in a room thermostatted at 25° C. Six days after the immersion, the hatched insects were counted. The mortality was calculated according to the following equation and the insecticidal effect was judged according to the criterion shown below. The test was carried out with triplicate groups of 10 insects. [formula]
The compounds described in JP-A-2001-131141 were used as comparative compounds as follows: […]

[2] = system: Common Cutworm (Spodoptera litura); test: Test Example 2: insecticidal effect on common cutworm, cabbage leaf dip, second-instar larvae; conditions: cabbage leaf immersed about 30 seconds, counted eight days after inoculation, 25° C.; for mortality at 5 ppm / mortality at 50 ppm: Spodoptera litura, foliar, 192 h, read-out: Test Example 2 insecticidal effect (mortality criterion)
Text: Insecticidal Effect on Common Cutworm (Spodoptera litura)
A piece of cabbage leaf (cultivar; Shikidori) was immersed for about 30 seconds in a liquid chemical prepared by diluting a preparation containing each compound listed in Table 1 or 2 as an active ingredient to adjust the prescribed concentration. After air-dryness, it was placed in a plastic Petri dish with a diameter of 9 cm and inoculated with second-instar larvae of common cutworm, after which the dish was closed and then allowed to stand in a room thermostatted at 25° C. Eight days after the inoculation, the dead and alive were counted. The mortality was calculated according to the following equation and the insecticidal effect was judged according to the criterion shown in Test Example 1. The test was carried out with triplicate groups of 10 insects. [formula]

[3] = system: diamondback moth (Plutella xylostella); test: Test Example 3: controlling effect on diamondback moth by soil treatment for cabbage (planting-hole granules); conditions: 20 mgAI/plant granules in planting hole; for Number of parasites/3 plants After 18 days: 18 days after trans-planting; for Number of parasites/3 plants After 25 days: 25 days after trans-planting; for Number of parasites/3 plants After 32 days: 32 days after trans-planting; for Number of parasites/3 plants After 42 days: 42 days after trans-planting
Experimental: Controlling effect on diamondback moth (Plutella xylostella) by soil treatment for cabbage At the time of trans-planting cabbage plants (cultivar: YR Seitoku), planting holes were treated with granules prepared from the compound listed in Table 1 or 2 according to Formulation Example. Diamondback moths parasitic on the cabbage plants were counted on predetermined days after the trans-planting. In Table 4, mgAI/plant denotes the dosage (mg) of the active ingredient per plant.

CSCC(C)(C)NC(=O)c1c(I)cccc1C(=O)Nc1ccc(I)cc1C [compound 30, N^2-(1,1-dimethyl-2-methylthioethyl)-3-iodo-N^1-(4-iodo-2-methylphenyl)phthalamide]
mortality at 5 ppm ([1]; 5 ppm): 100%
mortality at 50 ppm ([1]; 50 ppm): 100%
mortality at 5 ppm [2]: 0 to 49%
mortality at 50 ppm ([2]; 50 ppm): 100%
Number of parasites/3 plants After 18 days [3]: 0 parasites/3 plants
Number of parasites/3 plants After 25 days [3]: 9 parasites/3 plants
Number of parasites/3 plants After 32 days [3]: 19 parasites/3 plants
Number of parasites/3 plants After 42 days [3]: 37 parasites/3 plants

Cc1cc(I)ccc1NC(=O)c1cccc(I)c1C(=O)NC(C)(C)CS(C)(=O)=O [compound 32, N^2-(1,1-dimethyl-2-methylsulfonylethyl)-3-iodo-N^1-(4-iodo-2-methylphenyl)phthalamide]
mortality at 5 ppm ([1]; 5 ppm): 100%
mortality at 50 ppm ([1]; 50 ppm): 100%
mortality at 5 ppm [2]: 0 to 49%
mortality at 50 ppm ([2]; 50 ppm): 100%

Cc1cc(I)ccc1NC(=O)c1cccc(I)c1C(=O)NC(C)(C)C[S+](C)[O-] (stereo not shown) [compound 31, N^2-(1,1-dimethyl-2-methylsulfinylethyl)-3-iodo-N^1-(4-iodo-2-methylphenyl)phthalamide]
mortality at 5 ppm ([1]; 5 ppm): 100%
mortality at 50 ppm ([1]; 50 ppm): 100%
mortality at 5 ppm [2]: 0 to 49%
mortality at 50 ppm ([2]; 50 ppm): 100%

CC(C)(CS(C)(=O)=O)NC(=O)c1c(I)cccc1C(=O)Nc1ccc(Cl)cc1Cl [compound 101]
Test Example 1 insecticidal effect (mortality criterion) ([1]; 5 ppm): A (Mortality 100%)
Test Example 1 insecticidal effect (mortality criterion) ([1]; 50 ppm): A (Mortality 100%)

Cc1cc(Cl)ccc1NC(=O)c1cccc(I)c1C(=O)NC(C)(C)C[S+](C)[O-] (stereo not shown) [compound 25]
Number of parasites/3 plants After 18 days [3]: 0 parasites/3 plants
Number of parasites/3 plants After 25 days [3]: 0 parasites/3 plants
Number of parasites/3 plants After 32 days [3]: 6 parasites/3 plants
Number of parasites/3 plants After 42 days [3]: 22 parasites/3 plants

CCSCC(C)NC(=O)c1cccc(I)c1C(=O)Nc1ccc(Cl)cc1C (stereo not shown) [B, N^2-(4-chloro-2-methylphenyl) -3-iodo-N^1-(2-ethylthio-1-methylethyl)phthalamide, reference compound]
mortality at 5 ppm ([1]; 5 ppm): 0 to 49%
mortality at 50 ppm ([1]; 50 ppm): 100%
mortality at 5 ppm [2]: 0 to 49%
mortality at 50 ppm ([2]; 50 ppm): 0 to 49%

CSCC(C)(C)NC(=O)c1c(I)cccc1C(=O)Nc1ccc(Cl)c(C(F)(F)F)c1Cl [compound 142]
Test Example 1 insecticidal effect (mortality criterion) ([1]; 50 ppm): A (Mortality 100%)
Test Example 2 insecticidal effect (mortality criterion) ([2]; 50 ppm): A (Mortality 100%)

Cc1cc(Br)ccc1NC(=O)c1cccc(I)c1C(=O)NC(C)(C)C[S+](C)[O-] (stereo not shown) [compound 28]
Number of parasites/3 plants After 18 days [3]: 0 parasites/3 plants
Number of parasites/3 plants After 25 days [3]: 7 parasites/3 plants
Number of parasites/3 plants After 32 days [3]: 23 parasites/3 plants
Number of parasites/3 plants After 42 days [3]: 59 parasites/3 plants

CSCC(C)NC(=O)c1cccc(I)c1C(=O)Nc1ccc(Cl)cc1C (stereo not shown) [A, N^2-(4-chloro-2-methylphenyl)-3-iodo-N^1-(1-methyl-2-methylthioethyl)phthalamide, reference compound]
mortality at 5 ppm ([1]; 5 ppm): 0 to 49%
mortality at 50 ppm ([1]; 50 ppm): 100%
mortality at 5 ppm [2]: 0 to 49%
mortality at 50 ppm ([2]; 50 ppm): 0 to 49%
Number of parasites/3 plants After 18 days [3]: 8 parasites/3 plants
Number of parasites/3 plants After 25 days [3]: 75 parasites/3 plants
Number of parasites/3 plants After 32 days [3]: 143 parasites/3 plants
Number of parasites/3 plants After 42 days [3]: 146 parasites/3 plants
